Several values for one entry are separate records, joined by “and”; a condition that tells them apart may be missing. Equal entries are not always repeated.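 Values below derive from 48-hour exposures of cells grown in 96-well plates, with endpoints linearly interpolated between the two concentrations bracketing the appropriate inhibition level. GI50 is the concentration that inhibits growth by half. The concentration for full growth arrest is given as TGI.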
Tests used:
Assay in all cases: NCI-60 cell line screen, 48 h
[1] = system: K-562 leukemia
[2] = system: OVCAR-3 ovarian
[3] = system: ACHN renal
[4] = system: SNB-75 CNS
[5] = system: SK-MEL-5 melanoma
[6] = system: HCT-116 colon
[7] = system: CCRF-CEM leukemia
[8] = system: NCI-H226 lung
[9] = system: UACC-257 melanoma
[10] = system: RPMI-8226 leukemia

| SMILES | TGI [1] | TGI [2] | TGI [3] | TGI [4] | TGI [5] | TGI [6] | TGI [7] | TGI [8] | TGI [9] | TGI [10] | GI50 [1] | GI50 [2] | GI50 [3] | GI50 [4] | GI50 [5] | GI50 [6] | GI50 [7] | GI50 [8] | GI50 [9] | GI50 [10] |
| --- | --- | --- | --- | --- | --- | --- | --- | --- | --- | --- | --- | --- | --- | --- | --- | --- | --- | --- | --- | --- |
| O=C(O)COc1ccc(C(=O)/C(SS/C(C(=O)c2ccc(OCC(=O)O)c(Cl)c2Cl)=C2\C=C(c3ccc(Cl)cc3)SS2)=C2/C=C(c3ccc(Cl)cc3)SS2)c(Cl)c1Cl | 10.7 µM | 26.6 µM | 25.4 µM | 31 µM | 48.1 µM | 22.8 µM | 5.85 µM | 18.7 µM | > 100 µM | 43.3 µM |  |  |  |  |  |  |  |  |  |  |
| O=C(OC1CCC2OOC1O2)c1ccc([N+](=O)[O-])cc1 (stereo not drawn) | > 100 µM | > 100 µM | > 100 µM | > 100 µM | > 100 µM | > 100 µM | > 100 µM | > 100 µM | > 100 µM | > 100 µM |  |  |  |  |  |  |  |  |  |  |
| Cc1ccc(NC(=O)c2cc3ccccc3c(N=Nc3cc(S(=O)(=O)O)ccc3O)c2O)c(C)c1 | > 100 µM | > 100 µM | 23 µM | > 100 µM | > 100 µM | > 100 µM | 19.6 µM | > 100 µM | > 100 µM | > 100 µM |  |  |  |  |  |  |  |  |  |  |
| C[C@]12CC[C@@H]3c4cc(O)c(O)cc4CC[C@H]3[C@@H]1CC[C@@H]2O | > 100 µM | > 31.3 µM | 54.5 µM | 8.32 µM | 16.1 µM | > 51.4 µM | 20.2 µM | > 100 µM | > 100 µM | 30.3 µM | 0.499 µM | 2.77 µM | 8.94 µM | 1.55 µM | 3.54 µM | 4.4 µM | 1.67 µM | 26.8 µM | 13 µM | 3.99 µM |
| NC1CCCCC1N.O=[Se]([O-])[O-].[Pt+4] (stereo not drawn) | > 49.8 µM | > 100 µM | > 52.4 µM | > 100 µM |  | > 45.2 µM | 97.7 µM | 29.3 µM | > 64.8 µM | > 37.1 µM | 0.413 µM | 17 µM | 0.653 µM | 66.3 µM | 0.713 µM | 0.236 µM | 0.203 µM | 6.42 µM | 2.18 µM | < 0.0336 µM |
| COc1ccc2c(c1)CC[C@@H]1[C@@H]2CC[C@]2(C)c3c(cc(C(=O)O)c4sccc34)C[C@@H]12 | 20.9 µM | 72.1 µM | 78.4 µM | 47.9 µM | 28.4 µM | 24.8 µM | 13.3 µM | 55.4 µM | 61.4 µM | 17.7 µM | 5.79 µM | 24.7 µM | 18.9 µM | 20.8 µM | 14.7 µM | 11.2 µM | 3.42 µM | 23 µM | 26.7 µM | 4.01 µM |
| COC(=O)C1=COC(C)C2CN3CCc4c([nH]c5cc(OC)c(OC)cc45)C3CC12 (stereo not drawn) | > 100 µM | > 100 µM | > 100 µM | > 100 µM | > 100 µM | > 100 µM | > 100 µM | > 100 µM | > 100 µM | > 100 µM |  |  |  | 38.7 µM and > 100 µM |  | > 100 µM and 43.6 µM | 41.7 µM and 13.6 µM |  |  |  |
| Cc1ccc(-c2cc3c4c(nc5ccccc53)C(=O)c3cccnc3-c4n2)cc1 | > 100 µM | > 50.1 µM | 80.6 µM | > 53.6 µM | 3.89 µM | 22.8 µM | > 100 µM | > 100 µM | 20.8 µM | 54.9 µM | 0.39 µM | 1.85 µM | 22.5 µM | 13.1 µM | 1.67 µM | 7.65 µM | 8.04 µM | 56.4 µM | 6.01 µM | 4.18 µM |
| O=C(/C(=C/c1ccc([N+](=O)[O-])cc1)SCc1ccc(Cl)cc1)c1ccc(F)cc1 | > 100 µM | 5.13 µM | 3.33 µM | 65.6 µM | 8.87 µM | 2.92 µM | > 100 µM | > 41.6 µM | 26.1 µM | 4 µM | 2.45 µM | 2.2 µM | 1.76 µM | 16.1 µM | 2.85 µM | 1.39 µM | 1.97 µM | 9.67 µM | 11.5 µM | 0.81 µM |
| C[C@]12CC[C@@H]3c4cc(OC(F)F)c(OS(N)(=O)=O)cc4CC[C@H]3[C@@H]1CC[C@@H]2OS(N)(=O)=O | > 100 µM | 28.4 µM | 25.6 µM | 2.15 µM | 13.4 µM | 13.9 µM | > 70.7 µM | 33.2 µM | 24.8 µM | 35.4 µM | 0.389 µM | 2.17 µM | 1.8 µM | 0.463 µM | 1.21 µM | 0.997 µM |  | 4.24 µM | 5.87 µM | 1.03 µM |
| O=C1NC2C(=CC(O)C(O)C2O)c2cc3c(cc21)OCO3 (stereo not drawn) | 3.64 µM and 7.68 µM | 2.36 µM and 1.42 µM | 1.57 µM | 0.953 µM and 4.31 µM and 4 µM | 0.936 µM and 5.01 µM and 1.23 µM | 1.18 µM and 2.77 µM | 0.875 µM and 3.55 µM | 4.46 µM and 2.34 µM | 2.83 µM and 2.86 µM | 0.908 µM and 1.67 µM | 0.294 µM and 0.149 µM | 0.441 µM | 0.334 µM | 0.165 µM and 0.291 µM | 0.282 µM | 0.282 µM and 0.101 µM | 0.154 µM and 0.115 µM | 0.598 µM and 0.388 µM | 0.47 µM and 0.304 µM | 0.5 µM and 0.147 µM |
| O=[N+]([O-])c1ccc(C2=Nn3c(nnc3-c3ccc(Cl)cc3)SC2)o1 | 4.89 µM | 10.6 µM | 27.3 µM | 32 µM | 25.3 µM | 15.1 µM | 7.54 µM | 37.8 µM | 16.9 µM | 6.37 µM |  |  |  |  |  |  |  |  |  |  |
| N/C(=N/N=C/c1ccccc1)N/N=C\c1ccccc1 | > 100 µM | 7.8 µM | > 100 µM | > 100 µM | 13.3 µM | > 100 µM | > 100 µM | > 100 µM | 27.6 µM | 29.7 µM | 3.35 µM | 2.66 µM | 6.4 µM | 9.67 µM | 3.38 µM | 4.5 µM | 5.13 µM | 12.3 µM | 7.5 µM | 5.21 µM |
| COc1cccc(/C=N/NC(=O)c2ccccc2N2CCCC2)c1O | > 100 µM | > 100 µM | > 100 µM | > 100 µM | 24.4 µM | > 100 µM | > 100 µM | 9.06 µM | > 100 µM | > 100 µM | 5.45 µM | 3.3 µM | 2.72 µM | 16.9 µM | 5.3 µM | 3.3 µM | 0.712 µM | 1.84 µM | 3.05 µM | 3.74 µM |
| COc1cc2c(cc1Cc1cccc(Cl)c1F)c(=O)c(C(=O)O)cn2[C@@H](CO)C(C)C | 16.3 µM | 10.9 µM | 20.9 µM | 13.7 µM | 8.88 µM | 11.7 µM | 14.2 µM | 23.6 µM | 14 µM | 12.5 µM | 3.84 µM | 3.32 µM | 4.63 µM | 2.53 µM | 2.85 µM | 2.99 µM | 3.41 µM | 5.68 µM | 3.23 µM | 3.36 µM |
| S=C(NCCNC(=S)[S][Sn]([c]1ccccc1)([c]1ccccc1)[c]1ccccc1)[S][Sn]([c]1ccccc1)([c]1ccccc1)[c]1ccccc1 | 0.144 µM | 0.0384 µM | 0.0624 µM | 0.087 µM | 0.108 µM | 0.0315 µM | 0.657 µM | 0.144 µM | 0.117 µM | 0.147 µM | 0.0168 µM | 0.0145 µM | 0.0185 µM | 0.0162 µM | 0.0432 µM | 0.0127 µM | 0.0179 µM | 0.0639 µM | 0.0522 µM | 0.0234 µM |
| Cn1cc(C2=C(c3c4n(c5ccccc35)CCC(CN)C4)C(=O)NC2=O)c2ccccc21 (stereo not drawn) | 8.27 µM | 7.63 µM | 7.02 µM | 4.05 µM | 7.82 µM | 5.77 µM | 7.23 µM | 11.1 µM | 6.68 µM | 9.61 µM | 3.54 µM | 3.58 µM | 3.2 µM | 0.594 µM | 3.99 µM | 2 µM | 2.43 µM | 3.34 µM | 3.23 µM | 3.93 µM |
| CCN1C(=O)N(CC)C2C1NN=c1s/c(=C\c3ccco3)c(=O)n12 (stereo not drawn) | > 100 µM |  | > 100 µM |  | 55.3 µM | > 100 µM | > 100 µM | > 100 µM | > 100 µM | > 100 µM | 0.311 µM | 0.334 µM | 0.818 µM | 0.239 µM | 0.415 µM | 0.436 µM | 0.368 µM |  | > 100 µM | 0.438 µM |
| CC1=NN(c2ccc(S(=O)(=O)O)cc2)C(=O)/C1=C/c1ccc(Cl)cc1 | > 100 µM | > 100 µM | > 100 µM | > 100 µM | > 100 µM | > 100 µM | > 100 µM | > 100 µM | > 100 µM | > 100 µM |  |  |  |  |  |  |  |  |  |  |
| CC[C@@]1(O)C(=O)OCc2c1cc1n(c2=O)Cc2cc3cccc([N+](=O)[O-])c3nc2-1 | > 100 µM | 43.5 µM | 3.01 µM | 7.85 µM | 2.74 µM | 13.6 µM | 50.4 µM | 6.49 µM | 36.9 µM | 64.5 µM | 3.55 µM | 4.92 µM | 0.322 µM | 0.879 µM | 1.18 µM | 1.58 µM | 0.0506 µM | 0.552 µM | 2.81 µM | 1.71 µM |

— PubChem BioAssay (NCI)
